Data: PMC10989899, “MomL inhibits bacterial antibiotic resistance through the starvation stringent response pathway” (mLife, 2022)

How the values were obtained:
[1] = molecular target: T1, LasR (Pseudomonas aeruginosa, UniProt P25084); assay: EMSA, LasR binding to relA promoter DNA; format: biochemical; conditions: AHL required for DNA binding; the AHL added in EMSA is not named, 3-O-C12-HSL is that of LasR expression; 37 °C
T1 construct: recombinant, pET28a, E. coli BL21(DE3), Ni-NTA

[2] = system: RpoS (Pseudomonas aeruginosa PAO1); assay: SPR; conditions: binding buffer not stated, SPR: PBS, temperature not stated

T1 sequence (P25084 whole entry): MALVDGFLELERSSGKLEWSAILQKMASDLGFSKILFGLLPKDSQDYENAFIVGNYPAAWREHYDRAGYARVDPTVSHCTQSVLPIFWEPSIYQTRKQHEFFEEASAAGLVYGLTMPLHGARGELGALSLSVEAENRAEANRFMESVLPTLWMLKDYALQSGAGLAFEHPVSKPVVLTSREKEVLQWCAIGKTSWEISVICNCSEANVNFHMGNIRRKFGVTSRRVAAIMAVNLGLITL

| Compound | EMSA, LasR binding to relA promoter DNA [1] | Kd [2] [nM] |
| --- | --- | --- |
| CCCCCCCCCC(=O)CC(=O)N[C@H]1CCOC1=O [3-O-C12-HSL] | This binding depended on the presence of AHLs. |  |
| H2-T6SS promoter DNA (SPR) |  | 87.6 |
